Results reported in US20220281930A1, “COMPOSITIONS AND METHODS FOR THE TREATMENT OF PATHOLOGICAL PAIN AND ITCH” (DUKE UNIVERSITY, priority 2019, published 2022).

What was measured:
brain reward mechanisms = assay: Conditioned place preference (CPP); format: in vivo, mouse; settings: 30 mg/kg i.p.; KP vs vehicle
Protocol: Conditioned place preference (CPP) was conducted using a CPP box, which consists of two conditioning chambers distinguished by visual and sensory cues, along with a small buffering chamber. All mice received a 3-day preconditioning habituation period with free access to both conditioning chambers and the time spent in each chamber was recorded for 15 min on day 3 after habituation. On conditioning days (day 4-10), mice first received the vehicle control (i.p. 5% DMSO, 5% Tween-80 in normal saline) paired with a randomly chosen chamber in the morning. After 4 hours, mice received KP (i.p. 30 mg/kg) or vehicle, paired with the other chamber. During the conditioning, mice were allowed to stay only in the paired chamber for 15 min without access to other chambers. On test day (d11), mice were placed in the buffering chamber with free access to both conditioning chambers and choice behavior was recorded for 15 min. The CPP scores were calculated as post-conditioning time minus preconditioning time spent in the paired chamber.
With these beneficial effects of KP on pathologic pain and itch, whether KP had undesirable effects on the CNS in terms of sedation, impairment of motor stamina, balance and coordination was assessed. […]

[1] = test system: DNFB chronic contact dermatitis model; assay: DNFB chronic contact dermatitis scratching behavior; format: in vivo, mouse; settings: daily i.p. 30 mg/kg
Protocol: To assess scratching behavior as a behavioral correlate of itch, mice were shaved at the dorsal neck where topical application of 0.5% DNFB was applied (day 1). […] On day 12, mice were allowed to acclimate to a Plexiglas chamber for at least 30 mins before performing itch behavior test. Scratching behavior was recorded by a Panasonic video camera for a 30-min observation period. Hind limb scratching behavior directed toward the shaved area at the nape of neck was observed. One scratch is defined as a lifting of the hind limb toward the injection site and then a replacing of the limb back to the floor, regardless of how many scratching strokes take place between those two movements. Behavioral analysis was conducted by observers blinded to treatment procedure. DNFB-induced scratching behavior was recorded on day 12 for 1 h. […] Based on these findings, KP's anti-pruritic effects were assessed because inhibitory transmission in the SCDH plays an important role in chronic pruritus (Akiyama et al., 2015, Pain 156:1240-1246.; Bourane et al., 2015, Science 350:550-554; Braz et al., 2017, Prog Brain Res 231:87-105; Braz et al., 2014, J Clin Invest 124:3612-3616; Koch et al., 2018, Annual review of physiology 80:189-217; Mishra and Hoon, 2015, Handbook of experimental pharmacology 226:151-162).

[2] = test system: beta-cat binding to KCC2 promoter; assay: ChIP with anti-beta-cat antibody at KCC2 promoter; format: cell-based, rat; settings: KP-treated vs vehicle
Protocol: ChIP assay was carried out as described previously (Yeo et al., 2009, J Neurosci 29:14652-14662; Yeo et al., 2013, Proc Natl Acad Sci USA 110:4315-4320). Primary cortical neurons (0.7×10^6) were used for each ChIP experiment. Cells were crosslinked with 1% formaldehyde for 30 min, washed twice with cold PBS, resuspended in lysis buffer [1% SDS, 10 mm EDTA, and 50 mm Tris-HCl, pH 8.0, with protease inhibitor cocktail (Roche)], and sonicated for 15 s pulses. The lysates were clarified by centrifugation at 10,000 rpm for 10 min at 4° C. in a microcentrifuge. One-tenth of the total lysate was used as input control of genomic DNA. Supernatants were collected and diluted in buffer (1% Triton X-100, 2 mm EDTA, 150 mm NaCl, 20 mm Tris-HCl, pH 8.0, and protease inhibitor cocktail) followed by immunoclearing with 1 mg of salmon sperm DNA, 10 ml of rabbit IgG, and 20 ml of protein A/G-Sepharose (Santa Cruz Biotechnology) for 1 h at 4° C. Immunoprecipitation was performed overnight at 4° C. with 2 mg of each specific antibody. Precipitates were washed sequentially for 10 min each in TSE1 buffer (0.1% SDS, 1% Triton X-100, 2 mm EDTA, 150 mm NaCl, and 20 mm Tris-HCl, pH 8.0), TSE2 (TSE1 with 500 mm NaCl), and TSE3 (0.25 m LiCl, 1% NP-40, 1% deoxycholate, 1 mm EDTA, and 10 mm Tris-HCl, pH 8.0). […]

`O=C1Cc2c([nH]c3ccc(Br)cc23)-c2ccccc2N1` [kenpaullone, 9-bromo-7,12-dihydro-indolo [3,2-d] [1]benzazepin-6(5H)-one] was tested, and the CPP scores (brain reward mechanisms) was “No significant difference in CPP scores”, the “scratching behavior of sensitized sites” value [1] was “significantly reduced robust scratching behavior” and the “binding of beta-cat to TCF site” value [2] was “significantly increases binding”.
